# Assay results: PubChem BioAssay AID1918939 (Molecular Pharmacology Branch, DTP, NCI, 2023)
# Tested on: 653999-131-R-J2-PDC complex spheroid viability
# Assay: Anticancer human tumor 653999-131-R-J2-PDC patient-derived lung adenocarcinoma cell line growth inhibition
# Conditions: for IC50: curve of first compound; for viability, T/C: stronger effect = lower value
# In short: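 Multicellular complex spheroids of tumor cells with human endothelial cells (HUVEC) and mesenchymal stem cells; the LSD1 inhibitor iadademstat was combined with standard-of-care or investigational agents. Top concentration at or near clinical Cmax, half-log dilutions; final DMSO ≤0.25%.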
# [1] = second compound 0.1 µM, first compound 0.000316 µM
# [2] = second compound 0.1 µM, first compound 0.001 µM
# [3] = second compound 0.1 µM, first compound 0.00316 µM
# [4] = second compound 0.1 µM, first compound 0.01 µM
# [5] = second compound 0.1 µM, first compound 0.0316 µM
# [6] = second compound 0.1 µM, first compound 0.1 µM
# [7] = second compound 0.316 µM, first compound 0.000316 µM
# [8] = second compound 0.316 µM, first compound 0.001 µM
# [9] = second compound 0.316 µM, first compound 0.00316 µM
# [10] = second compound 0.316 µM, first compound 0.01 µM
# [11] = second compound 0.316 µM, first compound 0.0316 µM
# [12] = second compound 0.316 µM, first compound 0.1 µM
# [13] = second compound 1 µM, first compound 0.000316 µM
# [14] = second compound 1 µM, first compound 0.001 µM
# [15] = second compound 1 µM, first compound 0.00316 µM
# [16] = second compound 1 µM, first compound 0.01 µM
# [17] = second compound 1 µM, first compound 0.0316 µM
# [18] = second compound 1 µM, first compound 0.1 µM
# [19] = second compound 3.16 µM, first compound 0.000316 µM
# [20] = second compound 3.16 µM, first compound 0.001 µM
# [21] = second compound 3.16 µM, first compound 0.00316 µM
# [22] = second compound 3.16 µM, first compound 0.01 µM
# [23] = second compound 3.16 µM, first compound 0.0316 µM
# [24] = second compound 3.16 µM, first compound 0.1 µM
# [25] = second compound 10 µM, first compound 0.000316 µM
# [26] = second compound 10 µM, first compound 0.001 µM
# [27] = second compound 10 µM, first compound 0.00316 µM
# [28] = second compound 10 µM, first compound 0.01 µM
# [29] = second compound 10 µM, first compound 0.0316 µM
# [30] = second compound 10 µM, first compound 0.1 µM
# [31] = second compound 0.1 µM, first compound 0.00949 µM
# [32] = second compound 0.1 µM, first compound 0.03 µM
# [33] = second compound 0.1 µM, first compound 0.0949 µM
# [34] = second compound 0.1 µM, first compound 0.3 µM
# [35] = second compound 0.316 µM, first compound 0.00949 µM
# [36] = second compound 0.316 µM, first compound 0.03 µM
# [37] = second compound 0.316 µM, first compound 0.0949 µM
# [38] = second compound 0.316 µM, first compound 0.3 µM
# [39] = second compound 1 µM, first compound 0.00949 µM
# [40] = second compound 1 µM, first compound 0.03 µM
# [41] = second compound 1 µM, first compound 0.0949 µM
# [42] = second compound 1 µM, first compound 0.3 µM
# [43] = second compound 3.16 µM, first compound 0.00949 µM
# [44] = second compound 3.16 µM, first compound 0.03 µM
# [45] = second compound 3.16 µM, first compound 0.0949 µM
# [46] = second compound 3.16 µM, first compound 0.3 µM
# [47] = second compound 10 µM, first compound 0.00949 µM
# [48] = second compound 10 µM, first compound 0.03 µM
# [49] = second compound 10 µM, first compound 0.0949 µM
# [50] = second compound 10 µM, first compound 0.3 µM
# 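Further: spheroids exposed to agents for seven days before readout.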
structure (smiles),measurement,setting,value
CC(C)CC(NC(=O)C(Cc1ccccc1)NC(=O)c1cnccn1)B(O)O (stereo not given) + NC1CCC(NC2CC2c2ccccc2)CC1,IC50,second compound 0.1 µM,2.28 nM
same,IC50,second compound 0.316 µM,2.47 nM
same,IC50,second compound 1 µM,2.96 nM
same,IC50,second compound 3.16 µM,2.31 nM
same,IC50,second compound 10 µM,2.2 nM
same,"viability, T/C",[1],108%
same,"viability, T/C",[2],107%
same,"viability, T/C",[3],27.5%
same,"viability, T/C",[4],3.82%
same,"viability, T/C",[5],2.01%
same,"viability, T/C",[6],1.51%
same,"viability, T/C",[7],123%
same,"viability, T/C",[8],124%
same,"viability, T/C",[9],30.1%
same,"viability, T/C",[10],5.95%
same,"viability, T/C",[11],0.76%
same,"viability, T/C",[12],1.38%
same,"viability, T/C",[13],115%
same,"viability, T/C",[14],115%
same,"viability, T/C",[15],46.1%
same,"viability, T/C",[16],4.39%
same,"viability, T/C",[17],1.9%
same,"viability, T/C",[18],1.12%
same,"viability, T/C",[19],97.6%
same,"viability, T/C",[20],123%
same,"viability, T/C",[21],27.4%
same,"viability, T/C",[22],3.37%
same,"viability, T/C",[23],1.02%
same,"viability, T/C",[24],2.22%
same,"viability, T/C",[25],117%
same,"viability, T/C",[26],119%
same,"viability, T/C",[27],18.5%
same,"viability, T/C",[28],2.92%
same,"viability, T/C",[29],1.36%
same,"viability, T/C",[30],0.56%
CC(C)CC(NC(=O)CNC(=O)c1cc(Cl)ccc1Cl)B1OC(=O)CC(CC(=O)O)(C(=O)O)O1 (stereo not given) + NC1CCC(NC2CC2c2ccccc2)CC1,IC50,second compound 0.1 µM,9.68 nM
same,IC50,second compound 0.316 µM,13.9 nM
same,IC50,second compound 1 µM,10.9 nM
same,IC50,second compound 3.16 µM,11.1 nM
same,IC50,second compound 10 µM,11.5 nM
same,"viability, T/C",[1],98.5%
same,"viability, T/C",[2],102%
same,"viability, T/C",[3],106%
same,"viability, T/C",[4],48.4%
same,"viability, T/C",[5],28.5%
same,"viability, T/C",[6],10.7%
same,"viability, T/C",[7],80.7%
same,"viability, T/C",[8],102%
same,"viability, T/C",[9],99%
same,"viability, T/C",[10],60.4%
same,"viability, T/C",[11],21.9%
same,"viability, T/C",[12],8.68%
same,"viability, T/C",[13],87.8%
same,"viability, T/C",[14],90.5%
same,"viability, T/C",[15],95.8%
same,"viability, T/C",[16],52.7%
same,"viability, T/C",[17],19.4%
same,"viability, T/C",[18],10.1%
same,"viability, T/C",[19],99.1%
same,"viability, T/C",[20],85.4%
same,"viability, T/C",[21],106%
same,"viability, T/C",[22],53.1%
same,"viability, T/C",[23],26.5%
same,"viability, T/C",[24],9.89%
same,"viability, T/C",[25],98.2%
same,"viability, T/C",[26],104%
same,"viability, T/C",[27],122%
same,"viability, T/C",[28],55.4%
same,"viability, T/C",[29],18.4%
same,"viability, T/C",[30],5%
CCc1c2c(nc3ccc(O)cc13)-c1cc3c(c(=O)n1C2)COC(=O)[C@]3(O)CC + NC1CCC(NC2CC2c2ccccc2)CC1,IC50,second compound 0.1 µM,< 0.949 nM
same,IC50,second compound 0.316 µM,< 0.949 nM
same,IC50,second compound 1 µM,< 0.949 nM
same,IC50,second compound 3.16 µM,< 0.949 nM
same,IC50,second compound 10 µM,< 0.949 nM
same,"viability, T/C","second compound 0.1 µM, first compound 0.000949 µM",22%
same,"viability, T/C","second compound 0.1 µM, first compound 0.003 µM",13.8%
same,"viability, T/C",[31],11.8%
same,"viability, T/C",[32],7.96%
same,"viability, T/C",[33],5.01%
same,"viability, T/C",[34],5%
same,"viability, T/C","second compound 0.316 µM, first compound 0.000949 µM",19.8%
same,"viability, T/C","second compound 0.316 µM, first compound 0.003 µM",15.9%
same,"viability, T/C",[35],9.62%
same,"viability, T/C",[36],7.91%
same,"viability, T/C",[37],3.58%
same,"viability, T/C",[38],6.63%
same,"viability, T/C","second compound 1 µM, first compound 0.000949 µM",21.6%
same,"viability, T/C","second compound 1 µM, first compound 0.003 µM",15.2%
same,"viability, T/C",[39],9.88%
same,"viability, T/C",[40],7.86%
same,"viability, T/C",[41],4.29%
same,"viability, T/C",[42],4.06%
same,"viability, T/C","second compound 3.16 µM, first compound 0.000949 µM",22.2%
same,"viability, T/C","second compound 3.16 µM, first compound 0.003 µM",17.5%
same,"viability, T/C",[43],12.6%
same,"viability, T/C",[44],7.56%
same,"viability, T/C",[45],4.32%
same,"viability, T/C",[46],3.82%
same,"viability, T/C","second compound 10 µM, first compound 0.000949 µM",25.5%
same,"viability, T/C","second compound 10 µM, first compound 0.003 µM",15.8%
same,"viability, T/C",[47],9.94%
same,"viability, T/C",[48],6.03%
same,"viability, T/C",[49],2.71%
same,"viability, T/C",[50],2.44%
Nc1ccccc1NC(=O)c1ccc(CNC(=O)OCc2cccnc2)cc1 + NC1CCC(NC2CC2c2ccccc2)CC1,IC50,second compound 0.1 µM,349 nM
same,IC50,second compound 0.316 µM,228 nM
same,IC50,second compound 1 µM,394 nM
same,IC50,second compound 3.16 µM,294 nM
same,IC50,second compound 10 µM,301 nM
same,"viability, T/C",[31],68.4%
same,"viability, T/C",[32],68.1%
same,"viability, T/C",[33],57.1%
same,"viability, T/C",[34],54.3%
same,"viability, T/C","second compound 0.1 µM, first compound 0.949 µM",35.8%
same,"viability, T/C","second compound 0.1 µM, first compound 3 µM",9.78%
same,"viability, T/C",[35],70.5%
same,"viability, T/C",[36],61.3%
same,"viability, T/C",[37],56.1%
same,"viability, T/C",[38],49%
same,"viability, T/C","second compound 0.316 µM, first compound 0.949 µM",33.2%
same,"viability, T/C","second compound 0.316 µM, first compound 3 µM",8.88%
same,"viability, T/C",[39],75.3%
same,"viability, T/C",[40],69.7%
same,"viability, T/C",[41],65.1%
same,"viability, T/C",[42],52.4%
same,"viability, T/C","second compound 1 µM, first compound 0.949 µM",38.5%
same,"viability, T/C","second compound 1 µM, first compound 3 µM",8.55%
same,"viability, T/C",[43],69.6%
same,"viability, T/C",[44],77.9%
same,"viability, T/C",[45],57.1%
same,"viability, T/C",[46],46.9%
same,"viability, T/C","second compound 3.16 µM, first compound 0.949 µM",36.3%
same,"viability, T/C","second compound 3.16 µM, first compound 3 µM",8.4%
same,"viability, T/C",[47],74.6%
same,"viability, T/C",[48],62%
same,"viability, T/C",[49],54.6%
same,"viability, T/C",[50],57.4%
same,"viability, T/C","second compound 10 µM, first compound 0.949 µM",30.8%
same,"viability, T/C","second compound 10 µM, first compound 3 µM",5.06%
O=C(c1cc(Cc2n[nH]c(=O)c3ccccc23)ccc1F)N1CCN(C(=O)C2CC2)CC1 + NC1CCC(NC2CC2c2ccccc2)CC1,IC50,second compound 0.1 µM,> 10000 nM
same,IC50,second compound 0.316 µM,> 10000 nM
same,IC50,second compound 1 µM,> 10000 nM
same,IC50,second compound 3.16 µM,> 10000 nM
same,IC50,second compound 10 µM,> 10000 nM
same,"viability, T/C",[5],86.2%
same,"viability, T/C",[6],94.2%
same,"viability, T/C","second compound 0.1 µM, first compound 0.316 µM",80.7%
same,"viability, T/C","second compound 0.1 µM, first compound 1 µM",87.7%
same,"viability, T/C","second compound 0.1 µM, first compound 3.16 µM",81.6%
same,"viability, T/C","second compound 0.1 µM, first compound 10 µM",57.6%
same,"viability, T/C",[11],99.5%
same,"viability, T/C",[12],93.6%
same,"viability, T/C","second compound 0.316 µM, first compound 0.316 µM",98.3%
same,"viability, T/C","second compound 0.316 µM, first compound 1 µM",84.6%
same,"viability, T/C","second compound 0.316 µM, first compound 3.16 µM",70.1%
same,"viability, T/C","second compound 0.316 µM, first compound 10 µM",53%
same,"viability, T/C",[17],103%
same,"viability, T/C",[18],92.5%
same,"viability, T/C","second compound 1 µM, first compound 0.316 µM",109%
same,"viability, T/C","second compound 1 µM, first compound 1 µM",81%
same,"viability, T/C","second compound 1 µM, first compound 3.16 µM",71.5%
same,"viability, T/C","second compound 1 µM, first compound 10 µM",56.9%
same,"viability, T/C",[23],91.3%
same,"viability, T/C",[24],104%
same,"viability, T/C","second compound 3.16 µM, first compound 0.316 µM",84.8%
same,"viability, T/C","second compound 3.16 µM, first compound 1 µM",84.7%
same,"viability, T/C","second compound 3.16 µM, first compound 3.16 µM",85.1%
same,"viability, T/C","second compound 3.16 µM, first compound 10 µM",58.5%
same,"viability, T/C",[29],113%
same,"viability, T/C",[30],93.9%
same,"viability, T/C","second compound 10 µM, first compound 0.316 µM",102%
same,"viability, T/C","second compound 10 µM, first compound 1 µM",92.2%
same,"viability, T/C","second compound 10 µM, first compound 3.16 µM",76.4%
same,"viability, T/C","second compound 10 µM, first compound 10 µM",60%
